Source: patent publication US20220387621A1, “TARGETED DELIVERY OF NANOCARRIER-CONJUGATED DOXORUBICIN” (priority 2019, published 2022)

Key:
BJAB and Farage cells = assay: 48-hour viability with TFRC overexpression, holo-TF competition or dynasore; format: cell-based, human; conditions: 15 μM, 50 μM
Description: (§1) For 24-48 hr assessments, cells were seeded at 5000 cells per well in a 96-well plate under serial drug dilutions. For delayed drug effect viability, cells were seeded at 500,000 cells per well in a 6-well plate on day 0 and treated with drug for 24 hrs, after which cells were washed ×2 and plated in normal cell media without drug. Viability was assessed using Cell Titer Glo (Promega #G7573) according to manufacturer's protocol. Luminescence was measured using BioTek Synergy HT plate reader. EC50s were calculated using nonlinear fit regression analysis in GraphPad Prism 8. Apoptosis assessment was conducted with BD Biosciences reagent (#559763) using Attune NxT flow cytometer.
Human TFRC cDNA (HsCD00044911) was purchased from the DNASU Plasmid Repository (Tempe, Ariz., USA) and was subsequently cloned into pLVX-IRES-ZsGreenl vector (Clontech Laboratories, Mountain View, Calif., USA). Recombinant plasmids, together with packaging/envelope plasmids psPAX2 and pMD2.G (Addgene, Cambridge, Mass., USA), were co-transfected into HEK293 cells using Lipofectamine 3000 (Invitrogen, Carlsbad, Calif., USA) following manufacturer's instructions. Cell media was changed at 24 hours after transfection, and viral particles collected at 48 hours and 72 hours post transfection.
For viral transduction, BJAB and Farage cells were infected with harvested virus by spinoculation. […]

[1] = test system: murine B-lymphoma line A20; assay: 48-hour viability assay of A20 cells; format: cell-based; conditions: Mus musculus
Description: as §1

[2] = test system: BJAB, Farage, SU-DHL4, and Riva cells; assay: Delayed drug effect viability: 24 h drug, washout, viability tracking over 6 days; format: cell-based, human
Description: as §1

BJAB cells = assay: Fluorescent confocal microscopy, nuclear colocalization in BJAB; format: cell-based, human; conditions: 24 hours
Description: Cells were seeded at 50,000 cells per well in a 12-well plate and treated with either vehicle or drug. BJAB cells were fixed with 4% paraformaldehyde and permeabilized with 1% NP40 followed by staining for DAPI (Thermofisher Scientific, Waltham, Mass., USA). Cells were then imaged (60×) using a Leica DM4 B microscope. HEK293 cells had the nucleus stained for DAPI (Thermo #R37605) or GFP (Thermo #C10602) per the manufacturer protocol. Cells were live-imaged (63× objective) using Leica Sp5 confocal microscop and images collected and analyzed using ImageJ software.

in vivo = conditions: mouse
Description: (§2) All animal studies were performed under the approval of the University of Miami Institutional Animal Care and Use committee. […] For tumor-bearing experiments, DLBCL PDX DFBL-75549 tumor model was obtained and engrafted mice through surgical dorsal tumor implantation. Tumor volume (TV) was measured by ultrasound (Vevo 3100, Visualsonics) with a predetermined survival endpoint of TV>1500 mm3. A continuous body weight loss of >20% was also a predetermined survival endpoint. For dose-finding experiments, mice were dosed intravenously on day 0, day 14, and day 24 and observed for changes in body weight. For R-nanoCHOP vs. R-CHOP tumor-bearing experiments, mice were dosed with all drugs intravenously once on day 1 of every 21 days, with exception to Prednisone administered orally. The following drug doses were used: Rituximab 20 mg/kg, Cyclophosphamide 40 mg/kg, Doxorubicin 3.3 mg/kg, CDT 33 mg/kg, Vincristine 0.5 mg/kg, Prednisone 0.2 mg/kg.
Formalin-fixed paraffin-embedded tissue sections, produced per standard protocols, were used to make H&E-stained and immunohistochemistry (IHC) pathology slides. Antibodies were used as per above, when applicable.

DLBCL PDX tumor = conditions: mouse, in vivo
Description: as §2

Compound	viability, single agent (BJAB and Farage cells)	EC50 [1] [nM]	cell viability over time-course after washout [2]	nuclear colocalization (BJAB cells)	MTD (in vivo; male, NOD scid gamma (NSG), iv) [mg/kg]	weight loss at MTD (in vivo) [%]	anti-tumor efficacy (OS and tumor volume) (DLBCL PDX tumor)	body weight after two additional doses (DLBCL PDX tumor)	body weight nadir (DLBCL PDX tumor) [days]	return to starting weight (DLBCL PDX tumor) [days]
O=C(N/N=C/c1ccc(O)c(O)c1)c1cc2ccccc2cc1O [dynasore, Dynasore]	negatively affected viability	–	–	–	–	–	–	–	–	–
COc1cccc2c1C(=O)c1c(O)c3c(c(O)c1C2=O)C[C@@](O)(C(=O)CO)C[C@@H]3O[C@H]1C[C@H](N)[C@H](O)[C@H](C)O1 [Dox, doxorubicin]	–	10.6	seen only with much higher doses	similar	3.3	~20	relatively weak antitumor activity	irreversible weight loss	8	10 to 14
